For 4 compounds, Ki results are on record in publication PMC8173608, “Probing the Catalytic Mechanism and Inhibition of SAMHD1 Using the Differential Properties of Rp- and Sp-dNTPαS Diastereomers” (Biochemistry, 2021).

What is called Ki is the equilibrium dissociation constant of an inhibitor or competing ligand from its target. Higher therefore signals lower affinity.

In the test the target is T1, SAMHD1 (Homo sapiens, UniProt Q9Y3Z3).
T1 construct: wt-SAMHD1(1–626)
T1 sequence (Q9Y3Z3 whole entry): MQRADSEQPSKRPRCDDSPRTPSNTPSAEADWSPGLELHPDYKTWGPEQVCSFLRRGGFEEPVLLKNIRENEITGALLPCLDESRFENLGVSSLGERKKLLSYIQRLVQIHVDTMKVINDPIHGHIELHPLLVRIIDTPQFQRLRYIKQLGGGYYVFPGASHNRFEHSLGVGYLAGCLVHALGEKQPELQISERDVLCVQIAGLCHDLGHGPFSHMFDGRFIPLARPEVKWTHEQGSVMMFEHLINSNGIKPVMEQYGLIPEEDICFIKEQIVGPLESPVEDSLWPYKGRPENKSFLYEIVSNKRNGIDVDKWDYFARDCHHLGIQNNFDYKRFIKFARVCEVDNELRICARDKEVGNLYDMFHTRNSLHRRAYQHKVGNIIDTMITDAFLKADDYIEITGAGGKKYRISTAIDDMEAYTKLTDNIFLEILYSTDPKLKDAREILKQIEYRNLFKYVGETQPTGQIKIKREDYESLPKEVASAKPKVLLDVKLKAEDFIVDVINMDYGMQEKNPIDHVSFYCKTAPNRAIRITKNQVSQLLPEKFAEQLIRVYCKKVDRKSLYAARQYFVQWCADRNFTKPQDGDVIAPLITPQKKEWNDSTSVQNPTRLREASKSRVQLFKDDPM
Nature of the test: coupled enzyme assay (Ppx1/MDCC-PBP), competitive inhibition of TTP hydrolysis. The format is biochemical.
For `Cc1cn([C@H]2C[C@H](O)[C@@H](CO[P@](O)(=S)OP(=O)(O)OP(=O)(O)O)O2)c(=O)[nH]c1=O` [Sp-TTPαS], the affinity corresponds to a Ki of 46 ± 2 µM.

Turning to `Nc1ncnc2c1ncn2[C@H]1C[C@H](O)[C@@H](CO[P@](O)(=S)OP(=O)(O)OP(=O)(O)O)O1` [Sp-dATPαS], the affinity, expressed as Ki, was 117 ± 7 µM.

With `Nc1ccn([C@H]2C[C@H](O)[C@@H](CO[P@](O)(=S)OP(=O)(O)OP(=O)(O)O)O2)c(=O)n1` [Sp-dCTPαS], the inhibitory constant (Ki) was 6.3 ± 0.4 µM.

Compound `Nc1nc2c(ncn2[C@H]2C[C@H](O)[C@@H](CO[P@](O)(=S)OP(=O)(O)OP(=O)(O)O)O2)c(=O)[nH]1` [Sp-dGTPαS] came in with a Ki of 0.82 ± 0.05 µM.
